# Values of other authors in PMC4411882, “Developmental Potential for Endomorphin Opioidmimetic Drugs” (International Journal of Medicinal Chemistry, 2012).
# Where two headings read alike, the source gives them in different places. Where a SMILES comes first, the peptide text is derived from it. [ ]: non-standard residue; d: D form. The star is where a group is joined. Dmt = Cc1cc(O)cc(C)c1C[C@H](N)C(=O)O; NHBn = c1ccc(CN*)cc1
# Columns and labels:
# [1] = target: T1, μ-opioid receptor (Rattus norvegicus, UniProt P33535); design: gene Oprm1; conditions: read-out: Kiμ
# T1 sequence (P33535 whole entry): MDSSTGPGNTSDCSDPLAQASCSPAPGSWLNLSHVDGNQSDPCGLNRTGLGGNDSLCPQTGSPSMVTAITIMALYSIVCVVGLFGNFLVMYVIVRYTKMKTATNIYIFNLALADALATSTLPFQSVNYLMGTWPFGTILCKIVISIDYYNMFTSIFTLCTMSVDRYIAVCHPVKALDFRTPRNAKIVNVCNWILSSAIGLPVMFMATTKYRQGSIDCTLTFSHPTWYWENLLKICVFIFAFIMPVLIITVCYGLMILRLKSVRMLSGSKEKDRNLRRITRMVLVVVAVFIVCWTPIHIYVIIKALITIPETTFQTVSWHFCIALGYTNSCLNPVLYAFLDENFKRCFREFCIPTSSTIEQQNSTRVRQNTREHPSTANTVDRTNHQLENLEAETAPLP
# [2] = target: T2, δ-opioid receptor (Rattus norvegicus, UniProt P33533); design: gene Oprd1; conditions: read-out: Kiδ
# T2 sequence (P33533 whole entry): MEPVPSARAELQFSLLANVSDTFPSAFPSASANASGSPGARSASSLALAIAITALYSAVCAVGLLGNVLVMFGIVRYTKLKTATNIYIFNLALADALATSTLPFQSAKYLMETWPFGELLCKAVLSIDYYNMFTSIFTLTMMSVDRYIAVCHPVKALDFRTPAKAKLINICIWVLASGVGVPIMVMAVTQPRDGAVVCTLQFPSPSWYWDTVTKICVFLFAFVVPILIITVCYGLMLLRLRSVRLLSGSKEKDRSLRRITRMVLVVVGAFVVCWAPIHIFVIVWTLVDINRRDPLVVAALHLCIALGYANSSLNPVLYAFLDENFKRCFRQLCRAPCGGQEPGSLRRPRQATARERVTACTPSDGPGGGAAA
# [3] = target: T3, δ-opioid receptor (MVD) (Mus musculus, UniProt P32300); design: species or system mouse vas deferens
# T3 construct: gene Oprd1; mouse vas deferens (MVD) bioassay
# T3 sequence (P32300 whole entry): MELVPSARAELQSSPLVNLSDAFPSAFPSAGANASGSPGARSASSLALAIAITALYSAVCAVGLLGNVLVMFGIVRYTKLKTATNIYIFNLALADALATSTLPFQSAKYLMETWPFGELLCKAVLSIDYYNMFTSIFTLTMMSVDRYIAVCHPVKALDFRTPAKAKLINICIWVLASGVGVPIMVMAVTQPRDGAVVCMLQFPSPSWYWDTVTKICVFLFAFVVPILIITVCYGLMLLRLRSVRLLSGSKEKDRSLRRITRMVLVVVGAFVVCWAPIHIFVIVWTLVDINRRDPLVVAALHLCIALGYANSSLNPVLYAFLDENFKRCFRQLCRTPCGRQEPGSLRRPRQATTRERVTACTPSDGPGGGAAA
# From the text: (§1) Therefore, we substituted hydrophobic groups in lieu of the phenethyl group to develop the class of H-Dmt-Pro-Phe-NH-X ligands (Figure 1).
# [4] = target: T1, μ-opioid receptor; design: gene Oprm1; rat brain P2 synaptosomal preparations; species or system rat brain P2 synaptosomal preparations; conditions: read-out: Kiμ
# [5] = target: T2, δ-opioid receptor; design: gene Oprd1; rat brain P2 synaptosomal preparations; species or system rat brain P2 synaptosomal preparations; conditions: read-out: Kiδ
# [6] = target: T4, μ-opioid receptor (GPI) (Cavia porcellus, UniProt P97266); design: species or system guinea pig ileum
# T4 construct: gene OPRM1; guinea pig ileum (GPI) bioassay
# T4 sequence (P97266 whole entry): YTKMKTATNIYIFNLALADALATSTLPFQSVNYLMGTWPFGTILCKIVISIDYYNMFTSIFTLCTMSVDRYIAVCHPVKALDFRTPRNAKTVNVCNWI
# From the text: as §1
Structure (SMILES),Ki [1],Ki [2],IC50 [3],Ki [4],Ki [5],IC50 [6]
CNC(=O)C(N)Cc1c(C)cc(O)cc1C (stereo not drawn) [H-Dmt-NH-CH3],7.45 nM,460 nM,–,–,–,–
"C=CCNC(Cc1c(C)cc(O)cc1C)C(=O)NCCCCCCNC(=O)C(Cc1c(C)cc(O)cc1C)NCC=C (stereo not drawn) [compound 49, 1,6-bis[N-allyl-Dmt-NH]hexane]",–,–,> 10000 nM,12.4 nM,51.5 nM,> 10000 nM
"CCc1cc(O)cc(CC)c1C[C@H](N)C(=O)N1CCC[C@H]1C(=O)N[C@@H](Cc1ccccc1)C(=O)N[C@@H](Cc1ccccc1)C(N)=O [compound 37, H-Det-Pro-Phe-Phe-NH2]",–,–,47.1 nM,0.084 nM,69.7 nM,0.903 nM
"Cc1cc(C)cc(C[C@H](NC(=O)[C@@H]2CCCN2C(=O)[C@@H](N)Cc2c(C)cc(O)cc2C)C(=O)N[C@@H](Cc2ccccc2)C(N)=O)c1 [compound 41, H-Dmt-Pro-^3,5Dmp-Phe-NH2]",–,–,> 10000 nM,0.11 nM,11.6 nM,14.4 nM
"Cc1cc(O)cc(C)c1CC(N)C(=O)N1Cc2ccccc2CC1C(=O)NCCCCc1[nH]c(=O)c(CCCNC(=O)C2Cc3ccccc3CN2C(=O)C(N)Cc2c(C)cc(O)cc2C)nc1C (stereo not drawn) [compound 63, 3-[Dmt-Tic-NH(CH2)3]-6-[Dmt-Tic-NH(CH2)4]-5-methyl-2(1H)-pyrazinone]",–,–,> 10000 nM,1.56 nM,0.16 nM,> 10000 nM
"Cc1cc(O)cc(C)c1C[C@H](NC(=O)[C@@H]1CCCN1C(=O)[C@@H](N)Cc1c(C)cc(O)cc1C)C(=O)N[C@@H](Cc1ccccc1)C(N)=O [compound 43, H-Dmt-Pro-Dmt-Phe-NH2] (H-[Dmt]P[Dmt]F-NH2)",–,–,> 10000 nM,0.092 nM,80.8 nM,1.94 nM
"Cc1cc(O)cc(C)c1C[C@H](N)C(=O)N1CCC[C@H]1C(=O)N[C@@H](Cc1ccccc1)C(=O)Nc1cnc2ccccc2c1 [compound 29, H-Dmt-Pro-Phe-NH-3-Qln]",–,–,> 10000 nM,0.33 nM,190 nM,9.14 nM
"C=CCN[C@@H](Cc1c(C)cc(O)cc1C)C(=O)N1CCC[C@H]1C(=O)N[C@@H](Cc1ccccc1)C(=O)N[C@@H](Cc1ccccc1)C(N)=O [compound 48, [N-allyl-Dmt^1]EM-2]",–,–,> 10000 nM,0.45 nM,560 nM,> 10000 nM
"Cc1cccc(C)c1C[C@H](NC(=O)[C@@H]1CCCN1C(=O)[C@@H](N)Cc1c(C)cc(O)cc1C)C(=O)N[C@@H](Cc1ccccc1)C(N)=O [compound 42, H-Dmt-Pro-Dmp-Phe-NH2]",–,–,> 10000 nM,0.069 nM,2.27 nM,0.12 nM
"Cc1cc(O)cc(C)c1C[C@H](N)C(=O)N1CCC[C@H]1C(=O)N[C@@H](Cc1ccccc1)C(=O)NCc1ccccc1 [compound 23, H-Dmt-Pro-Phe-NH-Bzl] (H-[Dmt]-Pro-Phe-NHBn)",–,–,> 10000 nM,0.52 nM,13.8 nM,22 nM
"Cc1cc(O)cc(C)c1C[C@H](N)C(=O)N1CCC[C@H]1C(=O)N[C@@H](Cc1ccccc1)C(=O)Nc1ccc2ncccc2c1 [compound 31, H-Dmt-Pro-Phe-NH-6-Qln]",–,–,> 10000 nM,0.22 nM,46.6 nM,6.21 nM
"Cc1cc(O)cc(C)c1CC(C(=O)N1Cc2ccccc2CC1C(=O)NCCCCCCNC(=O)C1Cc2ccccc2CN1C(=O)C(Cc1c(C)cc(O)cc1C)N(C)C)N(C)C (stereo not drawn) [compound 69, bis[N,N-dimethyl-Dmt-Tic-NH]hexane]",–,–,> 10000 nM,2.21 nM,0.06 nM,> 10000 nM
"Cc1cc(O)cc(C)c1CC(N)C(=O)N1Cc2ccccc2CC1C(=O)NCCCCc1nc(C)c(CCCNC(=O)C2Cc3ccccc3CN2C(=O)C(N)Cc2c(C)cc(O)cc2C)[nH]c1=O (stereo not drawn) [compound 64, 3-[Dmt-Tic-NH(CH2)4]-6-[Dmt-Tic-NH(CH2)3]-5-methyl-2(1H)-pyrazinone]",–,–,> 10000 nM,2.28 nM,0.092 nM,> 10000 nM
"Cc1cc(O)cc(C)c1C[C@H](N)C(=O)N1Cc2ccccc2C[C@H]1C(=O)NCCCCCCCCCCNC(=O)[C@@H]1Cc2ccccc2CN1C(=O)[C@@H](N)Cc1c(C)cc(O)cc1C [compound 68, bis[Dmt-Tic-NH]decane]",–,–,> 10000 nM,4.86 nM,1.53 nM,5420 nM
"Cc1cc(O)cc(C)c1C[C@H](N)C(=O)NCCNC(=O)[C@@H](N)Cc1c(C)cc(O)cc1C [compound 51, Dmt-NH-(CH2)2-NH-Dmt]",–,–,> 10000 nM,1.43 nM,116 nM,2840 nM
"Cc1cc(O)cc(C)c1C[C@H](N)C(=O)N1CCC[C@H]1C(=O)N[C@@H](Cc1ccccc1)C(=O)Nc1cccnc1 [compound 26, H-Dmt-Pro-Phe-NH-3-Pyr]",–,–,> 10000 nM,0.17 nM,287 nM,72.8 nM
"Cc1cc(O)cc(C)c1C[C@H](N)C(=O)N1CCC[C@H]1C(=O)N[C@@H](Cc1ccccc1)C(=O)Nc1cccc2cccnc12 [compound 32, H-Dmt-Pro-Phe-NH-8-Qln]",–,–,2980 nM,0.49 nM,33.1 nM,445 nM
"Cc1cc(O)cc(C)c1CC(N)C(=O)N1Cc2ccccc2CC1C(=O)NCCCCc1[nH]c(=O)c(CCCCNC(=O)C2Cc3ccccc3CN2C(=O)C(N)Cc2c(C)cc(O)cc2C)nc1C (stereo not drawn) [compound 62, 3,6-bis[Dmt-Tic-NH(CH2)4]-5-methyl-2(1H)-pyrazinone]",–,–,> 10000 nM,1.74 nM,0.323 nM,> 10000 nM
"Cc1cc(O)cc(C)c1C[C@H](N)C(=O)NCCCCNC(=O)[C@@H](N)Cc1c(C)cc(O)cc1C [compound 52, Dmt-NH-(CH2)4-NH-Dmt]",–,–,> 10000 nM,0.041 nM,53.4 nM,5.33 nM
"C=CCN[C@@H](Cc1c(C)cc(O)cc1C)C(=O)N1CCC[C@H]1C(=O)N[C@@H](Cc1c[nH]c2ccccc12)C(=O)N[C@@H](Cc1ccccc1)C(N)=O [compound 47, [N-allyl-Dmt^1]EM-1]",–,–,> 10000 nM,0.26 nM,10.3 nM,> 10000 nM
